This is an account of results in patent US9566247B2, “Nanoparticles for controlled release of anti-biofilm agents and methods of use” (priority 2013, dated 2017).

In experiment [1] the test system is Biofilms of S. mutans UA159. Briefly: Antibiofilm activity, CFU per dry weight of biofilms on sHA discs. The following applies: equivalent dose of free farnesol (15% EtOH) or free NPC. It counts as cell-based, Streptococcus mutans. On the procedure:
Biofilms of S. mutans UA159 were formed on saliva coated hydroxyapatite (sHA) surfaces (12.7 mm in diameter, 1 mm in thickness, Clarkson Chromatography Products Inc., South Williamsport, Pa.) as detailed elsewhere (Koo et al., 2010, J Bacteriol, 192(12):3024-32). The HA discs were placed vertically using a custom-made holder and grown in UFTYE (pH 7.0) with 1% sucrose at 37° C. and 5% CO2. Disks were pretreated with the above-described solutions for 10 min, washed twice with sterile saline, and transferred back to culture media. The first treatment was applied directly after salivary pellicle formation (sHA) then treated disks were transferred to culture media containing S. mutans (10^5 CFU/ml). Biofilms were allowed to form on the discs without interruption for 6 hours at which point a second treatment was applied. The next day, biofilms were treated every 6 hours for a total of 3 treatments and the culture media was changed twice. After 48 hours, the amount of colony forming units (CFU) per dry-weight of biofilms was assessed. Briefly, the biofilms were removed and homogenized, then plated onto blood agar plates, and after incubation at 37° C., 5% CO2, the CFUs were counted as described previously (Koo et al., 2003, J Antimicrob Chemother, 52(5):782-9).

The test system of experiment [2] is Streptococcus mutants (S. mutans). The settings on record: cited from earlier work.

One may read the MIC as the smallest concentration in the dilution series that meets the test's criterion for growth inhibition.

Where only a bound is given, the exact number is not on record here.

On to `CC(C)=CCCC(C)=CCCC(C)=CCO` [farnesol], for which the “effect on CFU relative to PBS” value in experiment [1] is recorded as “no effect on CFU”. The minimal inhibitory concentration (MIC) in experiment [2] was below 28 µg/mL.
